This passage reports IC50 results from patent US11046699B2, “Pyrazolo-pyrimidin-amino-cycloalkyl compounds and their therapeutic uses” (RAPT THERAPEUTICS, INC., priority 2018, dated 2021).

SMILES strings stand for the structures.

The target in one assay is GCN2 (Homo sapiens, UniProt Q9P2K8). In words: GCN2 enzymatic endpoint assay: phosphorylation of GFP-eIF2α measured by TR-FRET (Lanthascreen). It counts as biochemical. Conditions: GCN2 biochemical IC50; 4 nM GCN2, 2 μM ATP, 80 nM GFP-eIF2α, 90 min RT; read-out: GCN2 activity. In short, it runs like this: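 Phosphorylated eIF2α read by Lanthascreen TR-FRET (acceptor 520 nm over donor 495 nm) after EDTA stop. The reaction ran 90 min at room temperature on 80 nM GFP-eIF2α with 2 μM ATP.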
Sequence of GCN2 (Q9P2K8 whole entry): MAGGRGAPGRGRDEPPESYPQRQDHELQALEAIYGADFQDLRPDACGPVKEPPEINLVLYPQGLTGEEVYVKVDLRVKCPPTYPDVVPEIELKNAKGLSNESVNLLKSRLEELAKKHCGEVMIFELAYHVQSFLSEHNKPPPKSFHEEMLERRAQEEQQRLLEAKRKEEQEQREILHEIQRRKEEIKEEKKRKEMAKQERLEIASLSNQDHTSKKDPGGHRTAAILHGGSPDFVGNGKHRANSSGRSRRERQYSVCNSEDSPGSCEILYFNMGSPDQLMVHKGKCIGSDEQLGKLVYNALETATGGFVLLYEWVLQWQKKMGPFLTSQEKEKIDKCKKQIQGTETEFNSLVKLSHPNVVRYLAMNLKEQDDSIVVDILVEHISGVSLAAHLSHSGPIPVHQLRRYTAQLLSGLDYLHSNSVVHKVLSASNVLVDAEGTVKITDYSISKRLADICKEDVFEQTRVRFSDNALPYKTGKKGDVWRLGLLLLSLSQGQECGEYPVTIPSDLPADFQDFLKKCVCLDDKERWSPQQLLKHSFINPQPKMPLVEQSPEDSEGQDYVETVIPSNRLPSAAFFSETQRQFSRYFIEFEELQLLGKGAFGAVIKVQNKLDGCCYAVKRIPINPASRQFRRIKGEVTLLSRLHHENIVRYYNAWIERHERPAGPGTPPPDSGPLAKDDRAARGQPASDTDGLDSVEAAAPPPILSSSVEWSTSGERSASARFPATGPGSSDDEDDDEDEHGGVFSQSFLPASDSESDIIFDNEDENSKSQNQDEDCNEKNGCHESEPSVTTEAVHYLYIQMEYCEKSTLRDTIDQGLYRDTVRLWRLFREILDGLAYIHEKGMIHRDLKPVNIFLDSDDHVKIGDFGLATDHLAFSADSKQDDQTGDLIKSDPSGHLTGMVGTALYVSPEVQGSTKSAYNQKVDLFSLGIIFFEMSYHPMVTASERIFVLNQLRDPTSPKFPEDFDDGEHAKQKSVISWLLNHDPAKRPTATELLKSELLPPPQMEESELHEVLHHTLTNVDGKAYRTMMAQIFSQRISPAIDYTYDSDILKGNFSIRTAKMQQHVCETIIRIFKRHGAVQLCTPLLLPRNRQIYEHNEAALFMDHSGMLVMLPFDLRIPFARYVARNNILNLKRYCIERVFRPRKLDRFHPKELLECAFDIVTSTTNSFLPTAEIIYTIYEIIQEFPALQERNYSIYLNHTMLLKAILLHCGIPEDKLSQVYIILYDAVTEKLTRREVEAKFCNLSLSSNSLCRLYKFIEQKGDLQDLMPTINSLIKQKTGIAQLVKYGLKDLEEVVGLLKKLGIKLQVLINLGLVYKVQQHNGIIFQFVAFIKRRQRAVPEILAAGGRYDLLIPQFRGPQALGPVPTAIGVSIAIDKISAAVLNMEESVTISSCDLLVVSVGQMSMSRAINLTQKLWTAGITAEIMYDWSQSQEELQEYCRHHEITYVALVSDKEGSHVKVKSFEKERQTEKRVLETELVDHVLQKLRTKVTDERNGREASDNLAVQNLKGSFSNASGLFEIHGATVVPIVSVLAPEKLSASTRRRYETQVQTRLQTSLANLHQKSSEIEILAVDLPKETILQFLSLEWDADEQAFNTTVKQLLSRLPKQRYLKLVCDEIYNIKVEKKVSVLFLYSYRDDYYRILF
In general terms: Time-resolved FRET reads energy transfer from a long-lived donor to a nearby acceptor.
As for `COCCNC(=O)[C@H]1C[C@H](Nc2ncc3c(Br)nn(-c4ccc5ncccc5c4)c3n2)C1` [Example 2, (1r,3r)-3-((3-bromo-1-(quinolin-6-yl)-1H-pyrazolo[3,4-d]pyrimidin-6-yl)amino)-N-(2-methoxyethyl)cyclobutane-1-carboxamide], the IC50 is 25 to 200 nM.

The same assay, now with this note: tested as described in Example 77; compound and/or hydrochloride, dihydrochloride or trifluoroacetic acid salt; read-out: IC 50 Activity.
`CNC(=O)[C@]1(C)CC[C@@H](Nc2ncc3c(Br)nn(-c4cc(CC(C)(C)O)c5ncccc5c4)c3n2)C1` [(1R,3R)-3-[[3-bromo-1-[8-(2-hydroxy-2-methyl-propyl)-6-quinolyl]pyrazolo[3,4-d]pyrimidin-6-yl]amino]-N,1-dimethyl-cyclopentanecarboxamide]: the IC50 lay in the range of 25 to 200 nM.

Turning to `CNC(=O)[C@@H]1CC[C@@H](Nc2ncc3c(Br)nn(-c4ccc5nc(C)c(F)cc5c4)c3n2)C1` [(1R,3R)-3-((3-bromo-1-(3-fluoro-2-methyl-quinolin-6-yl)-1H-pyrazolo[3,4-d]pyrimidin-6-yl)amino)-N-methylcyclopentane-1-carboxamide], the IC50 fell in the range of 25 to 200 nM.

Regarding `O=C(N[C@@H]1CNC[C@H]1F)[C@@H]1CC[C@@H](Nc2ncc3c(Br)nn(-c4cc(F)c5ncccc5c4)c3n2)C1` [(1R,3R)-3-((3-bromo-1-(8-fluoroquinolin-6-yl)-1H-pyrazolo[3,4-d]pyrimidin-6-yl)amino)-N-((3R,4R)-4-fluoropyrrolidin-3-yl)cyclo-pentane-1-carboxamide], the IC50 is 25 to 200 nM.

As for `O=C(N[C@H]1CC[C@@](O)(C(F)(F)F)CC1)[C@@H]1CC[C@@H](Nc2ncc3c(Br)nn(-c4ccc5ncccc5c4)c3n2)C1`, the IC50 lay within 25 to 200 nM.

As for `CNC(=O)[C@]1(C)CC[C@@H](Nc2ncc3c(Br)nn(-c4ccc(-c5nccs5)cc4)c3n2)C1` [(1R,3R)-3-[[3-bromo-1-(4-thiazol-2-ylphenyl)pyrazolo[3,4-d]pyrimidin-6-yl]amino]-N,1-dimethyl-cyclopentane-carboxamide], the IC50 lay within 25 to 200 nM.

Consider `CNC(=O)[C@]1(C)CC[C@@H](Nc2ncc3c(Br)nn(-c4cc(CC(C)O)c5ncccc5c4)c3n2)C1` (stereo partly drawn) [(1R,3R)-3-[[3-bromo-1-[8-(2-hydroxy-propyl)-6-quinolyl]pyrazolo[3,4-d]pyrimidin-6-yl]amino]-N,1-dimethyl-cyclopentanecarboxamide], for which the IC50 was < 25 nM.

`CNC(=O)[C@]1(C)CC[C@@H](Nc2ncc3c(Br)nn(-c4ccc(-n5nccc5C)cc4)c3n2)C1` [(1R,3R)-3-[[3-bromo-1-[4-(5-methyl-pyrazol-1-yl)phenyl]pyrazolo[3,4-d]pyrimidin-6-yl]amino]-N,1-dimethyl-cyclopentanecarboxamide]: the IC50 is 25 to 200 nM.

For the compound `CNC(=O)[C@]1(C)CC[C@@H](Nc2ncc3c(Br)nn(-c4ccc5ncc(CCO)cc5c4)c3n2)C1` [(1R,3R)-3-[[3-bromo-1-[3-(2-hydroxyethyl)-6-quinolyl]pyrazolo[3,4-d]pyrimidin-6-yl]amino]-N,1-dimethyl-cyclopentane-carboxamide], the IC50 is < 25 nM.

Take `COCCNC(=O)[C@@H]1CC[C@@H](Nc2ncc3c(Br)nn(-c4ccc5nccn5c4)c3n2)C1` [(1R,3R)-3-((3-bromo-1-(imidazo[1,2-a]pyridin-6-yl)-1H-pyrazolo[3,4-d]pyrimidin-6-yl)amino)-N-(2-methoxyethyl)cyclopentane-1-carboxamide]: the IC50 fell in the range of 500 to 1000 nM.

`Cc1nnc(-c2ccc(-n3nc(Br)c4cnc(N[C@@H]5CC[C@@](C)(C(=O)N6CCOCC6)C5)nc43)cc2CCC#N)s1`: the IC50 is 25 to 200 nM.

As to `C[C@]1(C(=O)NCCO)CC[C@@H](Nc2ncc3c(Br)nn(-c4cc(F)c5ncccc5c4)c3n2)C1` [(1S,3R)-3-[[3-bromo-1-(8-fluoro-6-quinolyl)pyrazolo[3,4-d]pyrimidin-6-yl]amino]-N-(2-hydroxyethyl)-1-methyl-cyclopentane-carboxamide], the IC50 fell in the range of 25 to 200 nM.

With `COCCNC(=O)[C@@H]1CC[C@@H](Nc2ncc3c(Br)nn(-c4ccc(-c5ccncc5)cc4)c3n2)C1` [(1R,3R)-3-((3-bromo-1-(4-(pyridin-4-yl)phenyl)-1H-pyrazolo[3,4-d]pyrimidin-6-yl)amino)-N-(2-methoxyethyl)cyclopentane-1-carboxamide], the IC50 fell in the range of 500 to 1000 nM.

On to `COCCNC(=O)[C@@H]1CC[C@@H](Nc2ncc3c(Br)nn(-c4ccc5nccnc5c4)c3n2)C1` [(1R,3R)-3-((3-bromo-1-(quinoxalin-6-yl)-1H-pyrazolo[3,4-d]pyrimidin-6-yl)amino)-N-(2-methoxyethyl)cyclopentane-1-carboxamide], for which the IC50 lay within 25 to 200 nM.

On to `CNC(=O)[C@]1(C)CC[C@@H](Nc2ncc3c(Br)nn(-c4cc(CN)cc(C(F)(F)F)c4)c3n2)C1` [(1R,3R)-3-[[1-[3-(aminomethyl)-5-(trifluoromethyl)phenyl]-3-bromo-pyrazolo[3,4-d]pyrimidin-6-yl]amino]-N,1-dimethyl-cyclopentanecarboxamide; 2,2,2-trifluoroacetic acid], for which the IC50 was in the range of 25 to 200 nM.

As for `NC(=O)C1(NC(=O)[C@@H]2CC[C@@H](Nc3ncc4c(Br)nn(-c5cc(F)c6ncccc6c5)c4n3)C2)CC1` [(1R,3R)-3-[[3-bromo-1-(8-fluoro-6-quinolyl)pyrazolo[3,4-d]pyrimidin-6-yl]amino]-N-(1-carbamoylcyclopropyl)cyclopentane-carboxamide], the IC50 was 25 to 200 nM.

Regarding `CNC(=O)[C@]1(C)CC[C@@H](Nc2ncc3c(Br)nn(-c4cc(Cl)cc(C5CNC(=O)CO5)c4)c3n2)C1` (stereo partly drawn) [(1R,3R)-3-[[3-bromo-1-[3-chloro-5-(5-oxomorpholin-2-yl)phenyl]pyrazolo [3,4-d]pyrimidin-6-yl]amino]-N,1-dimethyl-cyclopentanecarboxamide], the IC50 fell in the range of 25 to 200 nM.

As for `CNC(=O)[C@]1(C)CC[C@@H](Nc2ncc3c(Br)nn(-c4cc(CN5CCNCCC5=O)c5ncccc5c4)c3n2)C1` [(1R,3R)-3-[[3-bromo-1-[8-[(7-oxo-1,4-diazepan-1-yl)methyl]-6-quinolyl]pyrazolo[3,4-d]pyrimidin-6-yl]amino]-N,1-dimethyl-cyclopentanecarboxamide], the IC50 lay within 25 to 200 nM.
